From the NIST ThermoML archive (doi:10.1016/j.fluid.2008.04.003)
± gives the expanded uncertainty stated by the source.

Assay: wn = mass fraction of the nth substance listed
Conditions: 101 kPa, Liquid; for viscosity: Capillary tube (Ostwald / Ubbelohde) method

NC(CO)(CO)CO [2-amino-2-(hydroxymethyl)-1,3-propanediol] + O
Conditions	mass density, 283.15 K [kg/m3]	mass density, 288.15 K [kg/m3]	mass density, 293.15 K [kg/m3]	mass density, 298.15 K [kg/m3]	mass density, 303.15 K [kg/m3]	mass density, 308.15 K [kg/m3]	mass density, 313.15 K [kg/m3]	viscosity, 283.15 K [mPa·s]	viscosity, 298.15 K [mPa·s]	viscosity, 313.15 K [mPa·s]
w1 = 0.0015	1000.5 ± 1.1	999.9 ± 1.1	999.1 ± 1	997.9 ± 1.1	996.6 ± 1.1	995 ± 1.2	993.1 ± 1.2	1.315 ± 0.012	0.905 ± 0.009	0.656 ± 0.007
w1 = 0.005	1001.6 ± 1.1	1001.3 ± 1.1	1000.5 ± 1	999.4 ± 1.1	997.8 ± 1.1	996 ± 1.2	993.6 ± 1.2	1.354 ± 0.012	0.913 ± 0.009	0.662 ± 0.007
w1 = 0.01	1002.4 ± 1.1	1001.8 ± 1.1	1001 ± 1	1000 ± 1.1	998.7 ± 1.1	997.2 ± 1.2	995.4 ± 1.2	1.36 ± 0.012	0.917 ± 0.009	0.669 ± 0.007
w1 = 0.025	1006.8 ± 1.1	1006 ± 1.1	1005.1 ± 1.1	1003.8 ± 1.1	1002.3 ± 1.1	1000.7 ± 1.2	998.7 ± 1.2	1.422 ± 0.013	0.959 ± 0.009	0.696 ± 0.007
w1 = 0.1	1026.2 ± 1.1	1025 ± 1.1	1023.8 ± 1.1	1022.4 ± 1.1	1020.8 ± 1.1	1019.4 ± 1.2	1017.7 ± 1.2	1.802 ± 0.016	1.173 ± 0.011	0.857 ± 0.008
